Test results reported in patent US11964021B2, “Bacterially derived, intact minicells for delivery of therapeutic agents to brain tumors” (EnGeneIC Molecular Delivery Pty Ltd, priority 2011, dated 2024).

Legend:
[1] = kinetics, FIG. 2A of MacDiarmid et al. Cancer Cell (2007); cited from earlier work
[2] = tested on: Canine brain tumor cells BCD-1, -8, -9 and J3T; assay: MTS cell proliferation assay, doxorubicin sensitivity, canine cells; type: cell-based; conditions: 1.7 nM to 8,600 nM, 72 hours
Description: (§1) Canine brain tumor cells BCD-1, -8, -9 and J3T and human brain tumor cell line U87-MG were seeded into 96 well plates at 5×10^3 cells per well. Cells were incubated overnight at 37° C., 5% CO2.
(§2) Doxorubicin was added to cells in […], of relevant media containing serum at concentrations ranging from 1.7 nM to 8,600 nM and incubated for 72 hours.
(§3) To measure the cytotoxic effect of Doxorubicin an MTS cell proliferation assay was performed. To each well 20 uL of MTS solution (CellTitre 96® Aqueous One MTS reagent—Promega) was added and incubated in the dark for 30 minutes. Absorbance was read at a wavelength of 490 nm. Data was analysed in Prism GraphPad (La Jolla, CA, USA) using non-linear regression and a 4-parameter curve fit.

[3] = tested on: human brain tumor cell line U87-MG; assay: MTS cell proliferation assay, doxorubicin sensitivity, human cells; type: cell-based; conditions: 1.7 nM to 8,600 nM, 72 hours
Description: as §1, §2, §3

SMILES	leakage of drug out of intact minicells once packaged [1]	sensitivity of cells to doxorubicin [2]	sensitivity of cells to doxorubicin [3]
N.N.[Cl][Pt][Cl] [cisplatin, Cisplatin]	did not leak out		
COc1cccc2c1C(=O)c1c(O)c3c(c(O)c1C2=O)C[C@@](O)(C(=O)CO)C[C@@H]3O[C@H]1C[C@H](N)[C@H](O)[C@H](C)O1 [doxorubicin, Doxorubicin]	did not leak out	equally sensitive	equally sensitive
